In assay [1] the target is T1, biotinylated KRAS protein containing G12C/C51S/C80L/C118S mutations (SEQ ID NO: 3) (Homo sapiens, UniProt P01116, C118S/C51S/C80L/G12C).
T1 construct: biotin acceptor peptide (Avi-type, […]
The experiment in a line: Test Example 4: SOS-catalyzed nucleotide exchange assay (TR-FRET). Conditions: 60-minute incubation with compound, then SOS and GTP, read-out: GNE IC50. Format: biochemical. As for the experimental part: Test Example 4: Procedure for SOS-Catalyzed Nucleotide Exchange Assay
The SOS-catalyzed nucleotide exchange assay utilizes a preformed complex of recombinant biotinylated KRAS protein containing G12C/C51S/C80L/C118S mutations (SEQ ID NO: 3) (referred to as Biotinylated KRAS G12C protein hereafter), Bodipy-GDP, and Terbium-streptavidin. Compounds are added to this complex and then after a 60-minute incubation time the mixture is treated with SOS and unlabeled GTP. Small molecule inhibitors stabilize the Bodipy-GDP complex whereas the untreated protein rapidly exchanges Bodipy-GDP for unlabeled GTP resulting in reduced TR-FRET signal.
Biotinylated KRAS G12C protein is diluted to 2 μM in an EDTA buffer (20 mM HEPES, 50 mM sodium chloride, 10 mM EDTA, and 0.01% Tween) and incubated at room temperature for one hour. This mixture is then further diluted to 90 nM in an assay buffer (20 mM HEPES, 150 mM sodium chloride, 10 mM magnesium chloride, and 0.005% Tween) containing 15 nM of Terbium-Streptavidin (Invitrogen, catalog #PV3577) and 900 nM of Bodipy-GDP (Invitrogen, G22360) and incubated at room temperature for six hours. This solution is referred to as Biotinylated KRAS G12C stock solution and is then diluted to 9 nM in assay buffer to give the KRAS G12C assay solution.
Each test compound (10 mM stock in DMSO) is diluted in DMSO to make a 10-point, 3-fold dilution series in a 384-well low dead volume microplate (Labcyte, catalog #LP-0200). Once titrations are made, 10 nL of the diluted compounds is acoustically dispensed into a 384-well plate (Corning, catalog #3820) using an Echo 550 (Labcyte).
Each well receives 6 μL of Biotinylated KRAS G12C assay solution using a BioRAPTR (Beckman Coulter) and is incubated at room temperature for 60 minutes in a humidified chamber. Each well then receives 3 μL of 120 nM recombinant human SOS protein and 9 mM GTP (Sigma, G8877) in assay buffer and is incubated at room temperature for 60 minutes in a humidified chamber.
The time-resolved fluorescence resonance energy transfer signal of both plates is measured on an Envision (PerkinElmer) plate reader: Excitation filter=340 nm; emission 1=495 nm; emission 2=520 nm; dichroic mirror=D400/D505; delay time=100 μs. The signal of each well is determined as the ratio of the emission at 520 nm to that at 495 nm. Percent effect of each well is determined after normalization to control wells containing DMSO (no effect) or a saturating concentration of inhibitor (max effect). The apparent effect as a function of compound concentration is fit to a four-parameter logistic equation.
(In TR-FRET formats the signal depends on donor and acceptor labels being close together.)

In assay [2] the target is T2, Recombinant KRAS G12C mutant protein (amino acids 1-169, SEQ ID NO: 1) (Homo sapiens, UniProt P01116, G12C).
T2 construct: His6 (N); TEV protease site (ENLYFQG; named from own knowledge) (N); made in house; host or cells: E. coli
The experiment in a line: Test Example 1: inhibitory activity on KRAS G12C nucleotide (GDP-GTP) exchange reaction in vitro. It is filed as biochemical. The conditions noted are these: BODIPY FL GDP-bound KRAS G12C incubated with compound at 25° C. for 1 hour, then SOS1 and GMPPNP, read-out: GNE IC50. As for the experimental part: Test Example 1: Evaluation of inhibitory activity of compounds on KRAS G12C nucleotide (GDP-GTP) exchange reaction in vitro
Recombinant KRAS G12C mutant protein (amino acids 1-169, SEQ ID NO: 1) and cleaved recombinant SOS1 (amino acids 564-1049, SEQ ID NO:2) proteins were expressed in E. coli and purified by affinity chromatography.
To prepare BODIPY FL GDP-bound KRAS G12C protein, 50 μM KRAS G12C protein was incubated with 0.5 mM BODIPY FL GDP in a loading buffer (20 mM Tris-HCl (pH 7.5), 50 mM NaCl, 1 mM DTT and 2.5 mM EDTA) for 1 hour on ice. After the incubation, MgCl2 was added to a final concentration of 10 mM, followed by incubation at room temperature for 30 minutes. The mixture was allowed to pass through a NAP-5 column to remove free nucleotides and purified BODIPY FL GDP-bound KRAS G12C protein was used for compound evaluation.
For the measurement of the inhibitory activity of compounds on GDP-GTP exchange rate of recombinant KRAS G12C, BODIPY FL GDP-bound KRAS G12C protein was incubated with various concentrations of compound in a reaction buffer (20 mM Tris-HCl (pH 7.5), 100 mM NaCl, 1 mM MgCl2, 2 mM DTT, 0.1% Tween 20) at 25° C. for 1 hour. After the incubation, recombinant SOS1 and Guanosine-5′-[(β,γ)-imido]triphosphate, Tetralithium salt (GMPPNP) (Jena Bioscience GmbH) were added and incubated at room temperature for 30 minutes to proceed SOS1-dependent GDP-GTP exchange reaction on KRAS G12C. Replacement of BODIPY FL GDP by GMPPNP was measured by calculating the ratio of fluorescence intensities of BODIPY FL before and after the exchange reaction. Inhibition % was calculated by setting the fluorescence ratio from the reaction without test compound (DMSO control) and the fluorescence ratio from the reaction without SOS1 and GMPPNP as 0% and 100% inhibition, respectively. IC50 values were calculated from dose titration curve using curve fitting by XLfit software (IDBS).

The target in assay [3] is T3, interaction between KRAS G12C and cRAF-RBD (Homo sapiens, UniProt P01116, G12C).
T3 construct: TEV protease site (ENLYFQG); made in house; host or cells: E. coli
The experiment in a line: Test Example 2: inhibitory activity on interaction between KRAS G12C and cRAF (Alpha technology). Conditions: GMPPNP-bound KRAS G12C incubated with compound at 25° C. for 1 hour, then cRAF-RBD. It is filed as binding. The protocol: Test Example 2: Evaluation of Inhibitory Activity of Compounds on Interaction Between KRAS G12C and cRAF (In Vitro)
Interaction between recombinant KRAS G12C mutant protein (SEQ ID NO: 1) and cRAF RAS-binding domain (cRAF-RBD, amino acids 50-132, Jena Biosciences GmbH) was measured using Alpha technology (PerkinElmer Inc.).
Recombinant KRAS G12C protein with an N-terminal His-tag was expressed in E. coli and purified by affinity chromatography. To prepare GTP-bound form and GDP-bound form of KRAS G12C protein, 50 μM KRAS G12C protein was incubated with 1 mM GMPPNP (Jena Bioscience GmbH) and 1 mM GDP, respectively, in a loading buffer (20 mM Tris-HCl (pH 7.5), 50 mM NaCl, 1 mM DTT and 2.5 mM EDTA) for 1 hour on ice. After the incubation, MgCl2 was added to a final concentration of 10 mM, followed by incubation at room temperature for 30 minutes. The mixture was allowed to pass through a NAP-5 column to remove free nucleotides and purified, and the resultant nucleotide-bound KRAS G12C protein was used for compound evaluation.
For the measurement of the inhibitory activity of compounds on interaction between KRAS G12C and cRAF-RBD, GMPPNP-bound KRAS G12C protein was incubated with various concentrations of compound in a reaction buffer (20 mM Tris-HCl (pH 7.5), 100 mM NaCl, 1 mM MgCl2, 1 mM TCEP, 0.1% Tween 20) at 25° C. for 1 hour. After the incubation, recombinant cRAF-RBD and Alpha detection reagents were added and incubated at room temperature for 1.5 hours for binding. Interaction of KRAS G12C and cRAF-RBD was monitored by measuring Alpha signal. Inhibition % was calculated using the signal from the reaction without test compound (DMSO control) as 0% inhibition and the signal from the reaction using GDP-bound KRAS G12C in place of GMPPNP-bound KRAS G12C as 100% inhibition. IC50 values were calculated from dose titration curve using curve fitting by XLfit software (IDBS).

The test system of another assay is MIA PaCa-2 cells. The experiment in a line: Test Example 3: growth inhibition activity on KRAS-G12C mutant cell line (MIA PaCa-2). Format: cell-based. The conditions noted are these: Homo sapiens, 72 h, MIA PaCa-2, 3-day culture, CellTiter-Glo 3D, read-out: CTX MiaPaCa IC50. As for the experimental part:
Test Example 3: Assay of Growth Inhibition Activity on KRAS-G12C Mutant Cell Line (MIA PaCa-2) (In Vitro)
MIA PaCa-2 cells (provided by Sumitomo Dainippon Pharma Co., Ltd.), which are a KRAS-G12C mutant human pancreas cancer cell line, were suspended in a 10% fetal bovine serum-containing RPMI1640 medium (manufactured by Fujifilm Wako Pure Chemical Corporation.). The cell suspension was seeded into each well of a 384-well U bottom microplate and cultured in an incubator containing 5% CO2 gas at 37° C. for 1 day. The compounds obtained in the Examples section were used as test compounds and were dissolved in DMSO, respectively, and each test compound was diluted with DMSO to give a concentration 500 times the final concentration. The resultant solution of the test compound in DMSO was diluted with the medium used for suspending cells and added to each well of the cell-culture plate to give a DMSO final concentration of 0.2%, followed by culture in an incubator containing 5% CO2 gas at 37° C. for another 3 days. The cell count after 3-day culture in the presence of the test compound was measured using CellTiter-Glo 3D Reagent (manufactured by Promega Corporation). To all cells were added with CellTiter-Glo 3D Reagent and mixed for 10 minutes. 30 minutes after mixing, luminescence was measured by a plate reader. The growth inhibition rate was calculated from the following equation, and the concentration of the test compound at which 50% inhibition was achieved (IC50 (nM)) was determined.
[formula] • T: the emission intensity in a well into which a test compound was added. • C: the emission intensity in a well into which a test compound was not added.
Background: In ATP-based viability assays light output follows the ATP content of the culture.

SMILES strings stand for the structures.

T2 sequence (P01116 with tags, fused parts or gaps isoform P01116-2 G12C): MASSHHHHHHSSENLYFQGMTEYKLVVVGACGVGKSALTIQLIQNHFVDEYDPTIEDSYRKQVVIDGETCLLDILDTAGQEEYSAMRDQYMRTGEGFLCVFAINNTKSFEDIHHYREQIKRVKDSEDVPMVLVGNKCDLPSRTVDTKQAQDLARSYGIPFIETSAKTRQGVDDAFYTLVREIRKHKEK
T3 sequence (P01116 with tags, fused parts or gaps isoform P01116-2 G12C): as above
T1 sequence (P01116 with tags, fused parts or gaps isoform P01116-2 G12C/C51S/C80L/C118S): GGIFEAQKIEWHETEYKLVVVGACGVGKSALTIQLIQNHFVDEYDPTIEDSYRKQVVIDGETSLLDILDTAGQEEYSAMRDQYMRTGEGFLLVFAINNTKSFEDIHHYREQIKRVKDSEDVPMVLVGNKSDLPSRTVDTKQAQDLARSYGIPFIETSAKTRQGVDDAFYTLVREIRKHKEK

What is called IC50 is the concentration needed to halve the response being measured. Regarding `C#Cc1cccc2cccc(C3Cc4nc(OCC56CCCN5CC(F)C6)nc(N5CCN(C(=O)C=CCN6CCC(OC)CC6)C(CC#N)C5)c4CO3)c12` (single isomer, unassigned) [Example 25a], the half-maximal inhibitory concentration (IC50) in assay [1] was 142 nM.
`C#Cc1cccc2cc(O)cc(C3Cc4nc(OC[C@@H]5CCCN5C)nc(N5CCN(C(=O)/C=C/CN6CCC(OC)CC6)[C@@H](CO)C5)c4CO3)c12` (stereo partly drawn) [Example 19, (E)-1-((2R)-4-(7-(8-ethynyl-3-hydroxynaphthalen-1-yl)-2-(((S)-1-methylpyrrolidin-2-yl)methoxy)-7,8-dihydro-5H-pyrano[4,3-d]pyrimidin-4-yl)-2-(hydroxymethyl)-piperazin-1-yl)-4-(4-meth-oxypiperidin-1-yl)but-2-en-1-one]: the figures for the concentration for half-maximal inhibition (IC50) (in assay [2]; in assay [3]; with MIA PaCa-2 cells) were 46.7 nM, 3550 nM and 8250 nM, respectively.
The like results for `COC1CCN(C/C=C/C(=O)N2CCN(c3nc(OCC4(CN5CCOCC5)CC4)nc4c3COC3(Cc5ccccc5C3)C4)C[C@@H]2CC#N)CC1` [Example 20, (S,E)-2-(1-(4-(4-methoxypiperidin-1-yl)but-2-enoyl)-4-(2′-((1-(morpholinomethyl)cyclopropyl)methoxy)-1,3,5′,8′-tetrahydrospiro[indene-2,7′-pyrano[4,3-d]pyrimidin]-4′-yl)piperazin-2-yl)acetonitrile] were, in that order, 174 nM, more than 6670 nM and 3350 nM.
Take `COC1CCN(C/C=C/C(=O)N2CCN(c3nc(OCC4(CN5CCOCC5)CC4)nc4c3COC3(CCc5cccc(Br)c53)C4)C[C@@H]2CC#N)CC1` (stereo partly drawn) [Example 21, 2-((2S)-4-(7-bromo-2′-((1-(morpholinomethyl)cyclopropyl)methoxy)-2,3,5′,8′-tetrahydrospiro[indene-1,7′-pyrano[4,3-d]pyrimidin]-4′-yl)-1-((E)-4-(4-methoxypiperidin-1-yl)but-2-enoyl)piperazin-2-yl)acetonitrile]: the concentration for half-maximal inhibition (IC50) in assay [2] is 287 nM; in assay [3], more than 6670 nM; in the assay with MIA PaCa-2 cells, 1130 nM.

For the origin of these results see patent US20240417408A1, “SMALL MOLECULE INHIBITORS OF KRAS G12C MUTANT” (MERCK SHARP & DOHME CORP., priority 2021, published 2024).
